The subject of assay [1] is Purine nucleoside phosphorylase (Toxoplasma gondii). Briefly: Inhibition of Toxoplasma gondii purine nucleoside phosphorylase from cystic strain ME 49 at 1 mM.
Assay [2] shares this test system. Briefly: Inhibition of Toxoplasma gondii purine nucleoside phosphorylase from virulent strain RH at 1 mM.
Assay [3] shares this test system. Briefly: Inhibition of Toxoplasma gondii purine nucleoside phosphorylase from cystic strain ME 49 at 4 mM.
Assay [4] has the same test system. Kind of assay: Inhibition of Toxoplasma gondii purine nucleoside phosphorylase from virulent strain RH at 4 mM.
Assay [5] has as its target T1, Purine nucleoside phosphorylase (Homo sapiens) (UniProt P00491).
T1 sequence (whole entry): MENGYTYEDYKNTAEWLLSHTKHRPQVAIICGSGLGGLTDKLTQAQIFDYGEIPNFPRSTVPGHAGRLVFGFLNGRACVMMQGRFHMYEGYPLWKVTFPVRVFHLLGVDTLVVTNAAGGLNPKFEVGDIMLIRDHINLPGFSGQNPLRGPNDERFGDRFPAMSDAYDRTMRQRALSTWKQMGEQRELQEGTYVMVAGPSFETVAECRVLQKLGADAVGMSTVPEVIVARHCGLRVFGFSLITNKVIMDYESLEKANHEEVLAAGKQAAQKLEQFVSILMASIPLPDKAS
Briefly: Compound was evaluated for its ability to inhibit in vitro Toxoplasma gondii purine nucleoside phosphorylase from cystic strain ME 49 at a concentration of 4 mM.

As to `O=C1C=CC(=O)c2c1nc(Cc1ccccc1)n2Cc1ccccc1`, the inhibition (in general, how much of the control response was suppressed) is 61% in assay [1], 65% in assay [2], 78% in assay [3] and 80% in assay [4].
For the compound `Cn1cnc2c1C(=O)C=CC2=O`, the inhibition was 31% in assay [1], 55% in assay [2], 82% in assay [3] and 85% in assay [4].
On to `O=C1C=CC(=O)c2c1ncn2Cc1ccc(F)cc1`, for which the inhibition in assay [1] was 56%; in assay [2], 80%; in assay [5], 100%; in assay [4], 88%.
Regarding `O=c1[nH]cnc2c1cnn2[C@@H]1O[C@H](CO)[C@@H](O)[C@H]1O`, the inhibition in assay [1] came out at 11%; in assay [2], 8%; in assay [3], 22%; in assay [4], 28%.
Take `O=C1C=CC(=O)c2c1ncn2Cc1cccc(F)c1`: the inhibition in assay [1] is 60%; in assay [2], 65%; in assay [3] it was 100%; in assay [4], 100%.
`O=C1C=CC(=O)c2[nH]cnc21`: the inhibition stood at 52% in assay [1], 47% in assay [2], 71% in assay [3] and 68% in assay [4].
The corresponding values for `Cc1nc2c(n1Cc1ccccc1)C(=O)C=CC2=O` are 66%, 54%, 92% and 82%.
The corresponding values for `CCCCn1cnc2c1C(=O)C=CC2=O` are 53%, 45%, 65% and 68%.
Consider `O=C1C=CC(=O)c2c1ncn2Cc1ccccc1F`, for which the inhibition in assay [1] is 62%; in assay [2], 70%; in assay [3], 89%; in assay [4], 87%.

The values are drawn from ChEMBL document CHEMBL1135256, “Benzimidazole-4,7-diones as inhibitors of protozoal (Toxoplasma gondii) purine nucleoside phosphorylase” (Bioorg Med Chem Lett, 2002).
